Results on twelve compounds are retold here after PubChem BioAssay (NCI).

Test systems include K-562 leukemia; U251 CNS; SF-268 CNS; HT29 colon; TK-10 renal; HOP-62 NSCLC; SN12C renal; M14 melanoma; EKVX NSCLC.
Holding throughout (test): NCI tumour cell line growth inhibition, 48 h

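Grown in 96-well plates, cells were treated for 48 hours with each compound at five concentrations. Insufficient inhibition: endpoint recorded as highest concentration tested. GI50 = concentration required for 50% inhibition of growth. TGI denotes the concentration required for complete inhibition of growth.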

On to `COc1cc(OC)c(/C=C/c2ccc3ccccc3[n+]2C)c(OC)c1`, for which the GI50 was 0.271 µM with K-562 leukemia; 0.323 µM in the test on U251 CNS; 0.501 µM in the test with SF-268 CNS; 0.28 µM with HT29 colon; 1.91 µM in the test with TK-10 renal; 1.13 µM in the test with HOP-62 NSCLC. In addition, the GI50 is 0.36 µM with SN12C renal and 1.22 µM in the test on M14 melanoma. The TGI was 20.9 µM in the test with K-562 leukemia; 8.97 µM with U251 CNS; 7.61 µM in the test on SF-268 CNS; 1.57 µM in the test with HT29 colon; 6.93 µM in the test with TK-10 renal; 12.1 µM in the test with HOP-62 NSCLC. Also, the results for the TGI in the test on SN12C renal and in the test on M14 melanoma were 16.9 µM and 5.01 µM, respectively.
For `CN(C)CCNc1nc2ccccc2c2c1c1c(n2Cc2ccccc2)-c2ccccc2C1=O`, the GI50 was 3.89 µM in the test on K-562 leukemia; 14.4 µM in the test on U251 CNS; 12.2 µM in the test on SF-268 CNS; 6.92 µM in the test on HT29 colon; 18.1 µM in the test with HOP-62 NSCLC; 12.6 µM in the test on SN12C renal. Besides, the GI50 with EKVX NSCLC is 16.3 µM; in the test with M14 melanoma it was 18.6 µM. Besides, the TGI in the test on K-562 leukemia turned out to be 21.2 µM; in the test on U251 CNS it was 29.2 µM; in the test with SF-268 CNS it was 28.6 µM; in the test with HT29 colon, 22.2 µM; with HOP-62 NSCLC, 37.2 µM; in the test on SN12C renal it was 27.5 µM. The figures for the TGI in the test with EKVX NSCLC and in the test with M14 melanoma were 32.3 µM and 40.7 µM, respectively.
On to `CC1=C2C(O)C(C(C)CO)C(O)CC2(C)C(O)CC1` (stereo not given), for which the TGI in the test on U251 CNS, in the test on SF-268 CNS, with HT29 colon, in the test on TK-10 renal, in the test on HOP-62 NSCLC and in the test on SN12C renal was over 100 µM in each case. Also, the TGI in the test on EKVX NSCLC and in the test with M14 melanoma was over 100 µM in each case.
Consider `CC1(C)C=CC[C@]2(C)[C@H]3CC[C@@H]4[C@H]5[C@H](C(=O)/C=C/c6cccnc6)CC[C@]5(CO)CC[C@@]4(C)[C@]3(C)CC[C@@H]12`, for which the GI50 is 1.24 µM with U251 CNS; 1.23 µM in the test on HT29 colon; 1.81 µM with TK-10 renal; 1.54 µM in the test on HOP-62 NSCLC; 1.07 µM with SN12C renal. Also, the TGI in the test on U251 CNS was found to be 2.65 µM; in the test with HT29 colon, 2.68 µM; in the test on TK-10 renal, 3.26 µM; in the test on HOP-62 NSCLC it was 3.11 µM; in the test on SN12C renal, 2.45 µM.
Regarding `COc1cc(/C=C/c2cc(C(F)(F)F)[nH]c(=O)n2)ccc1OCc1ccccc1F`, the GI50 with K-562 leukemia was 7.55 µM; in the test with U251 CNS, 5.23 µM; in the test on SF-268 CNS it was 17.9 µM; with HT29 colon, 21.5 µM; in the test on TK-10 renal, 18 µM; in the test with HOP-62 NSCLC, 10.3 µM. For the same compound, the values for the GI50 with SN12C renal and in the test with M14 melanoma were 7.04 µM and 12.5 µM, respectively. Further, the TGI in the test with K-562 leukemia was 98.8 µM; in the test on U251 CNS, 18.5 µM; in the test on SF-268 CNS, over 100 µM; with HT29 colon, 43.6 µM; with TK-10 renal, 39.1 µM; with HOP-62 NSCLC, 25 µM. Besides, the TGI in the test on SN12C renal was 32.6 µM; in the test with M14 melanoma, 26.1 µM.
As for `CC(=O)NC1=N/C(=C/c2cc([N+](=O)[O-])ccc2O)CN1C`, the TGI with U251 CNS, in the test on HT29 colon, in the test with TK-10 renal, in the test on HOP-62 NSCLC, with SN12C renal and in the test with EKVX NSCLC was over 100 µM throughout. In the test on M14 melanoma, this compound yielded a TGI of over 100 µM.
Consider `CCCCC#COP(=O)(OCC)OCC`, for which the TGI with U251 CNS, with SF-268 CNS, with HT29 colon, with TK-10 renal, with HOP-62 NSCLC and in the test on SN12C renal was over 100 µM in each case. Further, the TGI in the test with EKVX NSCLC and in the test on M14 melanoma was over 100 µM each time.
Consider `O=C(Nc1ccccc1)c1ccc(Cl)c([N+](=O)[O-])c1`, for which the TGI with K-562 leukemia was 14.3 µM; in the test on U251 CNS, over 100 µM; in the test with HT29 colon, 70.1 µM; in the test on TK-10 renal it was over 100 µM; in the test on HOP-62 NSCLC, over 100 µM; in the test on SN12C renal, 79.4 µM. The TGI is over 100 µM with EKVX NSCLC and 29.9 µM in the test with M14 melanoma.
With `Nc1ccc(C(=O)N/C(=C\C=C\c2ccco2)c2nc3[nH]c(=S)[nH]c(=O)c3[nH]2)cc1`, the TGI with K-562 leukemia, in the test on U251 CNS, in the test on SF-268 CNS, with HT29 colon, in the test with TK-10 renal and in the test on SN12C renal was over 100 µM each time. In addition, the TGI in the test on EKVX NSCLC and in the test on M14 melanoma was over 100 µM each time.
Consider `CC1=CSC2=NC(c3ccc(Cl)c(Cl)c3)=CC(c3ccc(Cl)cc3)N12` (stereo not given), for which the GI50 in the test on K-562 leukemia, in the test on U251 CNS, in the test on SF-268 CNS, in the test on HT29 colon, with TK-10 renal and in the test on HOP-62 NSCLC was over 100 µM throughout. Also, the GI50 with SN12C renal and in the test on M14 melanoma was over 100 µM in each case. Also, the TGI with K-562 leukemia, in the test with U251 CNS, with SF-268 CNS, in the test on HT29 colon, in the test on TK-10 renal and in the test on HOP-62 NSCLC was over 100 µM in each case. Further, the TGI in the test on SN12C renal and in the test with M14 melanoma was over 100 µM in each case.
For `COc1cc(-c2nc3ccc(C)cc3[nH]2)ccc1OCC(=O)N=Nc1c(O)[nH]c2ccccc12`, the GI50 in the test on TK-10 renal was 3.21 µM; in the test on SN12C renal it was 1.68 µM; in the test with EKVX NSCLC, 12.7 µM; in the test on M14 melanoma it was 1.84 µM. Moreover, the TGI with TK-10 renal is 11.1 µM; in the test with SN12C renal, 3.19 µM; with EKVX NSCLC, over 100 µM; with M14 melanoma, 3.56 µM.
Turning to `COc1cc(OC2OC(C)C(O)C(O)C2O)cc2oc(-c3ccc(O)cc3)c(CC=C(C)C)c(=O)c12` (stereo not given), the GI50 was 7.91 µM with K-562 leukemia; 15.4 µM with SF-268 CNS; 25 µM with TK-10 renal; 18.2 µM with HOP-62 NSCLC; 12.3 µM in the test on SN12C renal; 25.6 µM with EKVX NSCLC. Further, in the test with M14 melanoma, the GI50 was 19.2 µM. Further, the TGI in the test with K-562 leukemia came to 27.9 µM; in the test on SF-268 CNS, 32.5 µM; with TK-10 renal, 64.7 µM; in the test on HOP-62 NSCLC, 49.6 µM; in the test with SN12C renal, 45.3 µM; with EKVX NSCLC, 99.4 µM. This compound also registered a TGI in the test with M14 melanoma of 39.8 µM.
